Key:
LRRK2 kinase = target: T1, LRRK2 kinase (Homo sapiens, UniProt Q5S007); assay: Biochemical assay for LRRK2 (coupled pyruvate kinase/lactate dehydrogenase assay); details: 26.4 nM LRRK2 (residues 970-2528), peptide substrate, 1 mM ATP
T1 construct: purchased Thermo Fisher
Procedure: Example 138. Biochemical Assay for LRRK2 (SEQ. ID NO: 4)
Activity of LRRK2 kinase was determined spectroscopically using a coupled pyruvate kinase/lactate dehydrogenase assay that continuously monitors the ATP hydrolysis-dependent oxidation of NADH (e.g., Schindler et al. Science (2000) 289: 1938-1942). Assays were conducted in 384-well plates (100 μL final volume) using 26.4 nM LRRK2 (Thermo Fisher), 0.1 mM peptide substrate ([…] (SEQ ID NO: 6)), 1.5 units pyruvate kinase, 2.1 units lactate dehydrogenase, 1 mM phosphoenol pyruvate, 0.28 mM NADH and 1 mM ATP in assay buffer (100 mM Tris, pH 7.5, 15 mM MgCl2, 0.5 mM DTT, 0.004% (w/v) BSA, and 0.004% Triton X-100). Inhibition of LRRK2 was measured by adding serial diluted test compound (final assay concentration of 1% DMSO). A decrease in absorption at 340 nm was monitored continuously for 6 hours at 30° C. on a multi-mode microplate reader (BioTek). The reaction rate was calculated using the 2-3 h time frame. The reaction rate at each concentration of compound was converted to percent inhibition using controls (i.e. reaction with no test compound and reaction with a known inhibitor) and IC50 values were calculated using software routines in Prism (GraphPad software).

ULK1 kinase = target: T2, ULK1 kinase (Homo sapiens, UniProt O75385, E37A/K38A); assay: Biochemical assay for ULK1.3 (coupled pyruvate kinase/lactate dehydrogenase assay, peptide substrate); details: 0.1 nM ULK1 (residues 1-283), 1 mM ATP
T2 construct: purchased Beryllium
T2 sequence (O75385 1-283 E37A/K38A): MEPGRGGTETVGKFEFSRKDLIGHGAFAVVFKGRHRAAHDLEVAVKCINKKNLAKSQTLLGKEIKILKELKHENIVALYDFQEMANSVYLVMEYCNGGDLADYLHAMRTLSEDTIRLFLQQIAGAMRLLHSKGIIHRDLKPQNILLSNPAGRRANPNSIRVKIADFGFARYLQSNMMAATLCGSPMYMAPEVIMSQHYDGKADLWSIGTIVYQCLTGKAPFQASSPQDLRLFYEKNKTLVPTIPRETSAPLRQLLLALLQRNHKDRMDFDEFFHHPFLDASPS
Procedure: Biochemical Assay for ULK1.3 (SEQ. ID NO: 2)
Inhibition of ULK1 was measured by adding serial diluted test compound (final assay concentration of 1% DMSO). A decrease in absorption at 340 nm was monitored continuously for 6 hours at 30° C. on a multi-mode microplate reader (BioTek). The reaction rate was calculated using the 2-3 h time frame. The reaction rate at each concentration of compound was converted to percent inhibition using controls (i.e. reaction with no test compound and reaction with a known inhibitor) and IC50 values were calculated using software routines in Prism (GraphPad software).

ULK kinase [1] = assay: pATG13 levels of mutant KRas MiaPaCa-2 cells after treatment with ULK inhibitors in combination with trametinib (ELISA); format: cell-based, human; details: MiaPaCa-2 pancreatic cancer cells, 250 nM trametinib, overnight, pS318-ATG13
Procedure: (§1) MiaPaCa-2 human pancreatic cancer cells (10000 cells/well) were added to a 384-well tissue-culture treated plate in 50 μL of pre-warmed DMEM medium supplemented with 10% characterized fetal bovine serum (Invitrogen, Carlsbad, Calif.), 100 units/mL penicillin G, 100 µg/mL streptomycin, and 2.5% Horse Serum and allowed to grow overnight at 37° C., 5% CO2, and 95% humidity. The following day, 10 μL of media containing trametinib or DMSO as a control was added to wells. […] A dose response of a test compound (0.6 μL per well) was added. DMSO (0.6 μL) was added to control wells. The plate was briefly shaken to mix wells and then incubated at 37° C. overnight. The next day, the media was aspirated and cells were washed with Dulbecco's Phosphate Buffered Saline (Gibco). Cells were lysed using MPER lysis buffer (Pierce, Rockford, Ill.) containing Halt Phosphatase and Protease Inhibitors (Pierce, Rockford, Ill.) and Phosphatase inhibitor cocktail 2 (Sigma, St. Louis, Mo.) at 4° C. for 10 minutes with shaking.
(§2) Plate wells were washed with ELISA wash buffer. Cell lysate was added to wells and incubated at room temperature for 2 hours. Plate wells were washed with ELISA wash buffer. […] Plate wells were washed with ELISA wash buffer. […] Plate wells were washed with ELISA wash buffer. […] The reaction was stopped with 2N Sulfuric Acid. The plate was analyzed at on a plate reader measuring absorbance at 450 nm and 540 nm (background). Signal was calculated by first subtracting the background absorbance at 540 nm from the absorbance at 450 nm for each well. Next, the background corrected absorbance at 450 nm from blank wells was subtracted from test wells. Data was compared to control wells to determine % ATG13 phosphorylation. GraphPad Prism was used to calculate IC50 values.

ULK kinase [2] = assay: pATG13 levels of mutant KRas A549 cells after treatment with ULK inhibitors in combination with trametinib (ELISA); format: cell-based, human; details: A549 (KRAS mutant) lung cancer cells, 250 nM trametinib, overnight, pS318-ATG13
Procedure: Cellular Inhibition of ULK Kinase Substrate ATG13 Protein pATG13 Levels of Mutant KRas A549 Cells after Treatment with ULK Inhibitors in Combination with Trametinib
as §1, with “A549 (KRAS mutant)” for “MiaPaCa-2”, “lung” for “pancreatic”, “(6,000” for “(10000”, “G, and” for “G,”, “μg/mL streptomycin” for “µg/mL streptomycin, and 2.5% Horse Serum”
as §2

T1 sequence (Q5S007 with tags, fused parts or gaps): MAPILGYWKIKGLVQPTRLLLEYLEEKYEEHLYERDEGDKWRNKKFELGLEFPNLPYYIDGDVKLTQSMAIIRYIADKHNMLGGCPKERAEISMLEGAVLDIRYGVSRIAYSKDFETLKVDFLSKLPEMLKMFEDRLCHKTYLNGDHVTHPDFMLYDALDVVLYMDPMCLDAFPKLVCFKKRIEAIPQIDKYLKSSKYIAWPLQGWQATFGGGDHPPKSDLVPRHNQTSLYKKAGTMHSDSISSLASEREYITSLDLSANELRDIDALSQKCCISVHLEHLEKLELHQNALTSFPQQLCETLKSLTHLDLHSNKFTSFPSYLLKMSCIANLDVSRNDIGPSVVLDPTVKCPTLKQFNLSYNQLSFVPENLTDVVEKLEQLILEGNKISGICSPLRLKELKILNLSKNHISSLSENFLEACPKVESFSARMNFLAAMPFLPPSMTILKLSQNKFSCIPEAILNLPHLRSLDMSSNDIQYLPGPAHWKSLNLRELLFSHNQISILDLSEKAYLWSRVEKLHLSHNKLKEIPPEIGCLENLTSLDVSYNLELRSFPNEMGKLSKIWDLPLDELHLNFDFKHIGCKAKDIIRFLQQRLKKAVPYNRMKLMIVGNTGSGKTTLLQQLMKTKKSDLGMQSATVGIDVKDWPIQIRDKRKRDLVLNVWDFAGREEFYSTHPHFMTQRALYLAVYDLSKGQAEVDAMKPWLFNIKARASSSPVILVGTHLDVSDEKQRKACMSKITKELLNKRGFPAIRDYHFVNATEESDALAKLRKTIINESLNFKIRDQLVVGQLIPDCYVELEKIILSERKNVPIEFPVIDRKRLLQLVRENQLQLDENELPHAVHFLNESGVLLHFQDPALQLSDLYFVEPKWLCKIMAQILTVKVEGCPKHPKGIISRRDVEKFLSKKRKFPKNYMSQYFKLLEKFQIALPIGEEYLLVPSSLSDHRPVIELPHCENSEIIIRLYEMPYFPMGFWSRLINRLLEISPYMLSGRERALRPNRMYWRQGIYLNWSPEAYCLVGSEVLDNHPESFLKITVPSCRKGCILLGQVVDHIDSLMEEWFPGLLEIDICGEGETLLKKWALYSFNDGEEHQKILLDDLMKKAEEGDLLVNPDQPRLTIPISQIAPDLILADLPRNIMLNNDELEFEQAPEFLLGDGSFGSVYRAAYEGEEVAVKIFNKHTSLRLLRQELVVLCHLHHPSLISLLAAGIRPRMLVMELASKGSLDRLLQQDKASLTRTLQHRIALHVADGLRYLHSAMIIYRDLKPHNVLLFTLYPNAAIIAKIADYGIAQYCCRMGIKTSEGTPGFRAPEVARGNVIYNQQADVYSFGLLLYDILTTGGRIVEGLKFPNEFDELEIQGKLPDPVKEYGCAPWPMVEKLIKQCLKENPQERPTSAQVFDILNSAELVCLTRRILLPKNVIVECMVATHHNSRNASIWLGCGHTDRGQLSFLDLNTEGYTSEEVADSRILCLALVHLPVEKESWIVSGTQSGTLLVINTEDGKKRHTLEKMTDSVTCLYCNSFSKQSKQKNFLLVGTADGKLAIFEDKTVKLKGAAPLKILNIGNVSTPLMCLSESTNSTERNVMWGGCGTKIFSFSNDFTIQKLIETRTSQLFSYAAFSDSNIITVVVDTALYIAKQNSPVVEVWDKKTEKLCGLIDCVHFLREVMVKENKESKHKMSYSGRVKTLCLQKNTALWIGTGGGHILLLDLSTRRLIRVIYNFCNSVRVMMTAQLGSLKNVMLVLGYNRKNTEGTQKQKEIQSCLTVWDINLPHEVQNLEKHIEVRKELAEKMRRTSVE

Structure (SMILES)	IC50 (LRRK2 kinase)	IC50 (ULK1 kinase)	IC50 (ULK kinase [1])	IC50 (ULK kinase [2])
CN1CCN(c2ccc(Nc3ncc(C(F)(F)F)c(NCCCN4CCCOC4=O)n3)c(C3CCCC3)c2)CC1 [Example 111]	100 to 300 nM	1 to 25 nM		
Cc1cc(N2C[C@H]3C[C@@H]2CO3)ccc1Nc1ncc(C(F)(F)F)c(NCCCN2CCOCCC2=O)n1 [Example 78]	100 to 300 nM	100 to 500 nM		
O=C1CCOCCN1CCCNc1nc(Nc2ccc(N3CCN4CCC[C@@H]4C3)cc2C2CC2)ncc1C(F)(F)F [Example 107]	100 to 300 nM	1 to 25 nM	10 to 100 nM	10 to 100 nM
CN1CCN(c2ccc(Nc3ncc(C(F)(F)F)c(NCCCN4CCOCCC4=O)n3)c(C3CCCC3)c2)CC1 [Example 112]	100 to 300 nM	1 to 25 nM	100 to 300 nM	100 to 300 nM
CCc1cc(N2CCN(C)CC2)c(F)cc1Nc1ncc(C(F)(F)F)c(NCCCN2CCCOCC2=O)n1 [Example 64]	1 to 100 nM	100 to 500 nM		
CN1CCN(c2ccc(Nc3ncc(C(F)(F)F)c(NCCCN4CCCCC4=O)n3)c(C3CCCC3)c2)CC1 [Example 113]	100 to 300 nM	1 to 25 nM		
CN1CCN(c2cc(C3CC3)c(Nc3ncc(C(F)(F)F)c(NCCCN4CCCCC4=O)n3)cc2F)CC1 [Example 35]	1 to 100 nM	25 to 100 nM	100 to 300 nM	100 to 300 nM
CCc1cc(N2CCN(C)CC2)ccc1Nc1ncc(C2CC2)c(NCCCN2CCCOCC2=O)n1 [Example 61]	> 600 nM	> 500 nM		
CCc1cc(N2CCN(C)C(=O)C2)ccc1Nc1ncc(C(F)(F)F)c(NCCCN2CCCOC2=O)n1 [Example 114]	1 to 100 nM	25 to 100 nM		
CN1CCN(c2ccc(Nc3ncc(Cl)c(NCCCN4CCOCCC4=O)n3)c(C3CC3)c2)CC1 [Example 82]		25 to 100 nM	100 to 300 nM	100 to 300 nM
CCc1cc(N2CCN(C)CC2)ccc1Nc1ncc(Br)c(NCCCN2CCCOCC2=O)n1 [Example 100]		25 to 100 nM	100 to 300 nM	100 to 300 nM
CC(=O)N1CCN(c2ccc(Nc3ncc(C(F)(F)F)c(NCCCN4CCCCC4=O)n3)c(C3CC3)c2)CC1 [Example 36, 1-(3-((2-((4-(4-acetylpiperazin-1-yl)-2-cyclopropylphenyl)amino)-5-(trifluoromethyl)pyrimidin-4-yl)amino)propyl)piperidin-2-one]		25 to 100 nM	> 600 nM	> 600 nM
CCc1cc(N2CC[C@@H](C#N)C2)ccc1Nc1ncc(C(F)(F)F)c(NCCCN2CCCCC2=O)n1 [Example 93]	100 to 300 nM	100 to 500 nM		
O=C1COCCCN1CCCNc1nc(Nc2ccc(N3CCNCC3)cc2C2CC2)ncc1C(F)(F)F [Example 62]		1 to 25 nM	10 to 100 nM	100 to 300 nM
CCc1cc(N2CCN(C)CC2=O)ccc1Nc1ncc(C(F)(F)F)c(NCCCN2CCCOC2=O)n1 [Example 56]	100 to 300 nM	25 to 100 nM		
CN1CCN(c2ccc(Nc3ncc(C(F)(F)F)c(NCCCN4CCCCC4=O)n3)c(C3CC3)c2)CC1=O [Example 49]	100 to 300 nM	100 to 500 nM		
CC(C)c1cc(N2CCN(C)CC2)ccc1Nc1ncc(Cl)c(NCCCN2CCOCCC2=O)n1 [Example 88]		25 to 100 nM	100 to 300 nM	300 to 600 nM
CN1C2CCC1CN(c1ccc(Nc3ncc(C(F)(F)F)c(NCCCN4CCCCC4=O)n3)c(C3CC3)c1)C2 [Example 130]		25 to 100 nM	300 to 600 nM	300 to 600 nM
CCc1cc(N2CC[C@H](C#N)C2)ccc1Nc1ncc(C(F)(F)F)c(NCCCN2CCCCC2=O)n1 [Example 48]	100 to 300 nM	100 to 500 nM		
CN1CCN(c2ccc(Nc3cc(NCCCN4CCCCC4=O)c(C(F)(F)F)cn3)cc2)CC1 [Example 103]		1 to 25 nM	10 to 100 nM	10 to 100 nM
CN1CCN(c2ccc(Nc3ncc(Br)c(NCCCN4CCCCC4=O)n3)c(C3CC3)c2)CC1 [Example 26]		1 to 25 nM	10 to 100 nM	100 to 300 nM

Other lines, results leading:

IC50 (LRRK2 kinase)	IC50 (ULK1 kinase)	IC50 (ULK kinase [1])	IC50 (ULK kinase [2])	Structure (SMILES)
100 to 300 nM	1 to 25 nM	10 to 100 nM	100 to 300 nM	CCc1cc(N2C[C@@H]3C[C@H]2CN3C)ccc1Nc1ncc(C(F)(F)F)c(NCCCN2CCOCCC2=O)n1 [Example 119]
1 to 100 nM	1 to 25 nM	10 to 100 nM	100 to 300 nM	CN(C)C1CN(c2ccc(Nc3ncc(C(F)(F)F)c(NCCCN4CCCCC4=O)n3)c(C3CC3)c2)C1 [Example 126]
100 to 300 nM	1 to 25 nM		10 to 100 nM	CCc1cc(N2C[C@H]3C[C@@H]2CN3C)ccc1Nc1ncc(C(F)(F)F)c(NCCCN2CCCOC2=O)n1 [Example 123]
100 to 300 nM	100 to 500 nM			CCc1cc(N2CCN(C)C(=O)C2)ccc1Nc1ncc(C(F)(F)F)c(NCCCN2CCOCCC2=O)n1 [Example 115]
> 600 nM	25 to 100 nM	100 to 300 nM	300 to 600 nM	CCc1cc(N2CCN(C)CC2)ccc1Nc1ncc(C#N)c(NCCCN2CCOCCC2=O)n1 [Example 129]
1 to 100 nM	25 to 100 nM	10 to 100 nM	100 to 300 nM	CN1C[C@@H]2C[C@H]1CN2c1ccc(Nc2ncc(C(F)(F)F)c(NCCCN3CCCOC3=O)n2)c(C2CC2)c1 [Example 117]
100 to 300 nM	1 to 25 nM	10 to 100 nM	10 to 100 nM	CN1CCN(c2ccc(Nc3ncc(C(F)(F)F)c(NCCCN4CCC(C)(C)OC4=O)n3)c(C3CC3)c2)CC1 [Example 148]
1 to 100 nM	1 to 25 nM	10 to 100 nM	10 to 100 nM	CN1C[C@H]2C[C@@H]1CN2c1ccc(Nc2ncc(C(F)(F)F)c(NCCCN3CCOCCC3=O)n2)c(C2CC2)c1 [Example 125]
	1 to 25 nM	10 to 100 nM	100 to 300 nM	CN(C)CC1CN(c2ccc(Nc3ncc(C(F)(F)F)c(NCCCN4CCOCCC4=O)n3)c(C3CC3)c2)C1 [Example 137]
1 to 100 nM	25 to 100 nM			CN(C)C1CN(c2ccc(Nc3ncc(Br)c(NCCCN4CCCCC4=O)n3)c(C3CC3)c2)C1 [Example 118]

Reference: patent US11530206B2, “Phenylaminopyrimidine amide autophagy inhibitors and methods of use thereof” (Deciphera Pharmaceuticals, LLC, priority 2019, dated 2022)
